{
  "source": "patent US20100197625A1",
  "about": "“SYNTHETIC LIPOPHILIC INOSITOL GLYCANS FOR TREATMENT OF CANCER AND GLUCOSE-METABOLISM DISORDERS” (priority 2006, published 2010)",
  "key": {"[1]": {"tested_on": "db/db, obese-diabetic mice", "assay": "Intravenous administration of IG1, db/db mice", "type": "in vivo", "experimental": "(§1) Male C57BL/6 mice were housed individually and given free access to a standard diet (65% carbohydrate, 4% fat, and 24% protein) or a high-fat diet (Quick Fat; 60.2% carbohydrate, 15.3% fat, and 24.5% protein; Clea Japan, Tokyo, Japan), starting at 5 weeks of age, for 5 weeks. Db/db mice also were housed individually and given free access to a standard diet. C57BL/6 mice at 5 weeks of age, were received a single dose of 75 μg/g body weight streptozotoxin (STZ). 7 days after injections, the mice, whose fasting plasma glucose concentrations were over 400 mg/dl, were used as STZ-diabetic mice. […]\n(§2) Frozen livers were homogenized, and triglycerides were extracted with CHCl3:CH3OH (2:1, vol:vol), dried and resuspended in 2-propanol (17). Triglyceride contents were measured using Lipidos liquid (TOYOBO, Osaka, Japan). […] Glycogen content was determined by the phenol-sulfuric acid spectrophotometric method at 490 nm (18) and expressed as micrograms of glycogen per milligram of liver.\n(§3) Blood glucose was assayed with Glucose Ace (Sanwa Kagaku Kenkyusho, Nagoya, Japan). Serum insulin and leptin were determined with ELISA kits (Morinaga Institute of Biological Science, Yokohama, Japan). Serum adiponectin and tumor necrosis factor-α (TNF-α) concentrations were measured with an ELISA kit (Ohtsuka Pharmaceutical, Tokyo, Japan) and a TNF-α assay kit (Amersham Biosciences, Uppsala, Sweden), respectively. […]"}, "[2]": {"tested_on": "streptozotocin (STZ)-diabetic mice", "assay": "Intravenous administration of IG1, STZ-diabetic mice", "type": "in vivo", "experimental": "as §1, §2, §3"}, "[3]": {"tested_on": "C57B/6 mice on normal diets", "assay": "Intraperitoneal IG1 for 7 days, mice on normal diets", "type": "in vivo", "conditions": "intraperitoneal for every 7 days, data not shown", "experimental": "as §1, §2, §3"}, "[4]": {"tested_on": "native rat adipocytes", "assay": "Lipogenesis in native rat adipocytes", "type": "cell-based", "conditions": "rat isolated adipocytes", "experimental": "Adipocytes were isolated from epididymal fat pads dissected from freshly sacrificed male Long-Evans rats and incorporation of [6-^3H]-glucose into triglycerides in response to treatment with inositol glycans or insulin was measured as previously described (Chakraborty, N. and M. d'Alarcao, Bioorganic & Medicinal Chemistry 13 (2005) 6732-6741)."}, "[5]": {"tested_on": "Panc-1 cells", "assay": "Cell proliferation / cell death assay, Panc-1", "type": "cell-based, human", "experimental": "(§4) Human pancreatic cancer cell lines (Panc-1, MiaPaca2, BXPC3, Aspc 1), human hepatoma cell line (HuH7), human gastric cancer cell lines (AGS, MKN45), human colon cancer cell line (CoCM-1), human mammary cancer cell line (MCF-7), human neuroblastoma (SH-SY5Y), human prostate cancer cells (PC3), and murine Ehrlich ascites cancer cells and mouse 3T3-L1 fibroblasts were obtained from American Type Culture Collection (Rockville, Md., USA). The cancer cells were cultured in RPMI 1640 containing 10% fetal calf serum. Cultures were maintained at 37° C. in a humidified atmosphere of 5% CO2.\n(§5) Cell proliferation assays were performed with the CellTiter 96 AQueous One Solution Cell Proliferation Assay kit according to the manufacturer's instructions (Promega, Madison, Wis., USA). Briefly, 5×10^3 cells/well in medium were placed onto 96-well plates. IGs were added to cellular cultures at final concentrations of 0, 1, 10, and 100 μM. […] of CellTiter 96 AQueous One Solution Reagent, which contains a tetrazolium compound, 3-(4,5-dimethylthiazol-2-yl)-5-(3-carboxymethoxyphenyl)-2-(4-sulfophenyl)-2H-tetrazolium, an inner salt; MTS was added to the culture medium. After incubating the plate for 1 h in a CO2 incubator, absorbance at 490 nm was recorded with a 96-well plate reader."}, "[6]": {"tested_on": "human hepatoma (HuH7)", "assay": "Cell proliferation / cell death assay, HuH7", "type": "cell-based", "conditions": "HuH7, 10-100 μM", "experimental": "as §4, §5"}, "[7]": {"tested_on": "human prostate cancer cells (PC3)", "assay": "Cell proliferation / cell death assay, PC3", "type": "cell-based", "conditions": "PC3, 10-100 μM", "experimental": "as §4, §5"}, "[8]": {"tested_on": "human neuroblastoma (SH-SY5Y)", "assay": "Cell proliferation / cell death assay, SH-SY5Y", "type": "cell-based", "conditions": "10-100 μM", "experimental": "as §4, §5"}, "[9]": {"tested_on": "Ehrlich ascites cancer cells", "assay": "Animal survival analysis, ddY mice bearing Ehrlich ascites cancer cells", "type": "in vivo", "conditions": "daily intraperitoneal for 7 days", "experimental": "Male ddy mice weighing 20-30 g obtained from and maintained on a standard diet and water ad libitum. Ehrlich ascites cancer cells (5×10^6 cells) were injected intraperitoneal to the mice. After 7 days later, the mice were subjected to daily intraperitoneal injection of IG1 or IG1 plus alkyl-acyl-phosphatidic acids (AAPAs) for additional 7 days. The endpoint of experiment was determined by spontaneous death of animals."}, "[10]": {"tested_on": "db/db mice", "assay": "Intraperitoneal IG1 for 7 days, db/db mice", "type": "in vivo", "conditions": "intraperitoneal for every 7 days, data not shown", "experimental": "as §1, §2, §3"}, "[11]": {"tested_on": "Panc-1 cells", "assay": "ATP contents in Panc-1 cells", "type": "cell-based, human", "conditions": "1 hour incubation in serum free media", "experimental": "as §4"}},
  "note": "Entries after “also recorded” stand apart in the source; their conditions may differ.",
  "data": [
    {"smiles": "CCCCCCCCCCCCCCCC(=O)O[C@@H]1C(O)C(O)[C@H](O)C(O[C@H]2OC(CO)[C@@H](O)[C@H](O)C2N)C1O", "note": "(stereo in doubt) [IG1, 2-Amino-2-deoxy-α-D-glucopyranosyl-(1→6)-2-palmitoyl-D-myo-inositol]", "values": [
      {"measurement": "hepatic and muscular glycogen synthesis", "setting": "[1]; data not shown", "result": "increases hepatic and muscular glycogen synthesis"},
      {"measurement": "plasma glucose concentrations", "setting": "[1]; intravenous", "result": "reduced plasma glucose concentrations"},
      {"measurement": "hepatic and muscular glycogen synthesis", "setting": "[2]; STZ-diabetic mice, data not shown", "result": "increases hepatic and muscular glycogen synthesis"},
      {"measurement": "plasma glucose concentrations", "setting": "[2]; intravenous, 0.3 mg per mice, 120-300 min after administration", "result": "significantly reduced plasma glucose concentrations"},
      {"measurement": "glucose tolerance", "setting": "[3]", "result": "improves glucose tolerance"},
      {"measurement": "hepatic and muscular glycogen synthesis", "setting": "[3]", "result": "increases hepatic and muscular glycogen synthesis"},
      {"measurement": "EC50", "setting": "[4]; Adipocyte, fit to receptor binding model, read-out: EC50 value for stimulation of lipogenesis", "result": 14, "unit": "µM"},
      {"measurement": "Emax", "setting": "[4]; Adipocyte, stimulation of lipogenesis, read-out: Amax (maximal effect)", "result": 24, "unit": "%"},
      {"measurement": "stimulation of lipogenesis", "setting": "[4]; concentration series", "result": "stimulated lipogenesis"},
      {"measurement": "cell death", "setting": "[5]; Panc-1, 1 hour after addition, 10-100 μM", "result": "induced very rapid cell death; also recorded: induced rapid cell death"},
      {"measurement": "cell death", "setting": "[5]; Panc-1, after 24 hours", "result": "induced rapid cell death"},
      {"measurement": "cell death", "setting": "[5]; Panc-1, after 3 days (72 hours)", "result": "induced rapid cell death"},
      {"measurement": "rapid cancer cell death", "setting": "[6]", "result": "rapid cancer cell death was demonstrated"},
      {"measurement": "rapid cancer cell death", "setting": "[7]", "result": "rapid cancer cell death was demonstrated"},
      {"measurement": "rapid cancer cell death", "setting": "[8]", "result": "rapid cancer cell death was demonstrated"},
      {"measurement": "survival times", "setting": "[9]", "result": "did not affect the survival times"},
      {"measurement": "glucose tolerance", "setting": "[10]", "result": "improves glucose tolerance"},
      {"measurement": "hepatic and muscular glycogen synthesis", "setting": "[10]", "result": "increases hepatic and muscular glycogen synthesis"},
      {"measurement": "ATP contents", "setting": "[11]", "result": "does not affect ATP contents"}
    ]}
  ]
}
